What was measured:
[1] = test system: Hsp90 derived from transformed cells overexpressing HER-2; conditions: cited from earlier work
NCI 60-cell panel = conditions: read-out: Growth Inhibition of 50% (GI50); cited from earlier work
non-tumor cells = conditions: cited from earlier work
monocytic THP-1 cells [2] = assay: HSP70 protein levels in monocytic THP-1 cells (autoradiograph, FIG. 1); assay type: cell-based; conditions: β-actin as standard
Description: FIG. 1 is an autoradiograph showing HSP70 levels in monocytic THP-1 cells treated with NVP-AUY922 or 17-DMAG. β-actin levels are shown as a standard.

[3] = in vivo; cited from earlier work
[4] = cited from earlier work
human Hsp90α = human Hsp90α (Homo sapiens, UniProt P07900); conditions: cited from earlier work
monocytic THP-1 cells [5] = assay: Pro-inflammatory cytokine gene expression by qRT-PCR (Table 1); assay type: cell-based; conditions: Control 1.0
Protocol: The major pro-inflammatory cytokines that are responsible for early inflammatory responses include IL1-α, IL1-β, IL-6, and TNF-α. […] Inflammatory cytokines and tissue factor gene expression were evaluated using quantitative real-time polymerase chain reaction (qRT-PCR). Amount of tissue factor was determined using a one stage clotting assay calibrated against a known amount of tissue factor (INNOVIN).

monocytic THP-1 cells [6] = assay: Pro-inflammatory cytokine protein expression (Table 1); assay type: cell-based; conditions: for IL-6 Protein Expression: Control 7.40; for IL-10 Protein Expression: Control 9.89; for IL-1β Protein Expression: Control 15.24; for IL-8 Protein Expression: Control 110.44; for TNF-α Protein Expression: Control 1611.19
mice with SCD = assay: LPS challenge in Townes sickle cell (SS) and AA mice treated with AUY922; assay type: in vivo, mouse
Protocol: FIG. 4 is a schematic diagram of an experimental procedure for assaying HSP90 inhibitors for the treatment SCD.
FIG. 5A is a bar graph of HSP70/GAPDH (relative units) for mice treated with phosphate buffered saline (PBS) or AUY922 (25 mg/Kg B.W.) daily for four days. FIG. 5B is a bar graph of HSP70/GAPDH (relative units) for mice treated with 0.1 μg/g B.W. of LPS or 0.1 μg/g B.W. of LPS plus AUY922 (25 mg/Kg B.W.).
Cytokine (ng/ml) for AA or SS mice treated with control, AUY, LPS, or LPS+AUY is shown.
Mouse Phenotype: B6;129-Hba^tm1(HBA)Tow Hbb^tm2(HBG1,HBB*)Tow/Hbb^tm3(HBG1,HBB)Tow/J
Entire Mouse Globin Locus Removed and Replace by Human Hemoglobin S or A.
AA, SS, & SA mice are available.

[7] = preclinical data; cited from earlier work
Hsp70 = conditions: cited from earlier work

In the case of C=CCNC1=C2C[C@@H](C)C[C@H](OC)[C@H](O)[C@@H](C)/C=C(\C)[C@H](OC(N)=O)[C@@H](OC)/C=C\C=C(/C)C(=O)NC(=CC1=O)C2=O [17-AAG, 17-allylamino-17-demethoxygeldanamycin], the IC50 ([1]; Hsp90 from HER-2 overexpressing cells (BT474, N87, SKOV3, SKBR3) or BT474 breast carcinoma cells, read-out: 1050 values) is given as 5 to 6 nM, the “higher affinity for Hsp90 derived from transformed cells” value ([1]; transformed cells overexpressing HER-2, comparator not printed (non-tumor cells are named just before)) is given as “more than 100 ×” and the GI50 (NCI 60-cell panel) is given as 120 nM. The “toxicity toward non-tumor cells” value (non-tumor cells) was “low toxicity”.
For CO[C@H]1/C=C\C=C(/C)C(=O)NC2=CC(=O)C(NCCN(C)C)=C(C[C@@H](C)C[C@H](OC)[C@H](O)[C@@H](C)/C=C(\C)[C@@H]1OC(N)=O)C2=O [17-DMAG, 17-Dimethylaminoethylamino-17-demethoxygeldanamycin], the HSP70 protein levels (monocytic THP-1 cells [2]) is listed as “increases HSP70 protein levels”, the GI50 (NCI 60-cell panel) is listed as 51 nM and the bioavailability [3] is listed as “excellent bioavailability”. The water solubility [4] was “water-soluble” and the “binding to ATPase site of human Hsp90α” value (human Hsp90α) was “high affinity”.
With CCNC(=O)c1noc(-c2cc(C(C)C)c(O)cc2O)c1-c1ccc(CN2CCOCC2)cc1 [AUY922, 5-(2,4-dihydroxy-5-isopropylphenyl)-N-ethyl-4-(4-(morpholinomethyl)phenyl)isoxazole-3-carboxamide] the HSP70 protein levels (monocytic THP-1 cells [2]) was “increases HSP70 protein levels”, the “IL-1β Gene Expression (Fold)” value (monocytic THP-1 cells [5]; AUY922 alone) was 0.9 Fold and the “IL-6 Gene Expression (Fold)” value (monocytic THP-1 cells [5]; AUY922 alone) was 1.2 Fold. The “IL-8 Gene Expression (Fold)” value (monocytic THP-1 cells [5]; AUY922 alone) was 1.0 Fold, the “IL-10 Gene Expression (Fold)” value (monocytic THP-1 cells [5]; AUY922 alone) was 30.2 Fold and the “TNF-α Gene Expression (Fold)” value (monocytic THP-1 cells [5]; AUY922 alone) was 0.8 Fold. The “TNF-α Gene Expression (Fold)” value (monocytic THP-1 cells [5]; LPS + AUY922, LPS alone 7.1) was 6.2 Fold, the “IL-6 Gene Expression (Fold)” value (monocytic THP-1 cells [5]; LPS + AUY922, LPS alone 42.5) was 3.25 Fold and the “IL-8 Gene Expression (Fold)” value (monocytic THP-1 cells [5]; LPS + AUY922, LPS alone 235.5) was 795.5 Fold. For the same compound, the “IL-10 Gene Expression (Fold)” value (monocytic THP-1 cells [5]; LPS + AUY922, LPS alone 350.4) was 200.1 Fold, the “IL-1β Gene Expression (Fold)” value (monocytic THP-1 cells [5]; LPS + AUY922, LPS alone 1950) was 20 Fold and the “IL-6 Protein Expression” value (monocytic THP-1 cells [6]; AUY922 alone) was 7.10. The “IL-10 Protein Expression” value (monocytic THP-1 cells [6]; AUY922 alone) was 4.20, the “IL-1β Protein Expression” value (monocytic THP-1 cells [6]; AUY922 alone) was 14.24 and the “IL-8 Protein Expression” value (monocytic THP-1 cells [6]; AUY922 alone) was 130.61. For the same compound, the “TNF-α Protein Expression” value (monocytic THP-1 cells [6]; AUY922 alone) was 1437.12, the “IL-10 Protein Expression” value (monocytic THP-1 cells [6]; LPS + AUY922, LPS alone 41.18) was 2.95 and the “IL-6 Protein Expression” value (monocytic THP-1 cells [6]; LPS + AUY922, LPS alone 156.51) was 6.80. The “IL-1β Protein Expression” value (monocytic THP-1 cells [6]; LPS + AUY922, LPS alone 775.64) was 14.57, the “IL-8 Protein Expression” value (monocytic THP-1 cells [6]; LPS + AUY922, LPS alone 839.99) was 117.87 and the “TNF-α Protein Expression” value (monocytic THP-1 cells [6]; LPS + AUY922, LPS alone 4391.73) was 1587.49. For the same compound, the “inflammation in in vivo model system for SCD” value (mice with SCD; SS mice) was “significant decrease in inflammation”, the “plasma levels of Il-1-Beta” value (mice with SCD; SS mice) was “reduces plasma levels” and the “plasma levels of TNF-alpha” value (mice with SCD; SS mice) was “reduces plasma levels”. The “LPS-induced Il-6 response” value (mice with SCD; mice with SCD) was “ablates the profound LPS-induced Il-6 response”, the “endothelial cell activation (sVCAM)” value (mice with SCD; mice with SCD, PBS, AUY922, LPS or LPS+AUY) was “blocks endothelial cell activation” and the HSP70/GAPDH pharmacodynamic response (mice with SCD; mice, AUY922 25 mg/Kg B.W. daily for four days, with or without LPS 0.1 μg/g B.W.) was “meets pharmacodynamic requirements”.
In the case of CC(C)c1cc(-c2n[nH]c(=O)n2-c2ccc3c(ccn3C)c2)c(O)cc1O [Ganetespib], the “cardiac or liver toxicity” value [7] is given as “no evidence of cardiac or liver toxicity” and the Hsp70 expression (Hsp70) is given as “induces the overexpression of Hsp70”.
In the case of C=CCNc1c(O)cc2c(O)c1C[C@@H](C)C[C@H](OC)[C@H](O)[C@@H](C)/C=C(\C)[C@H](OC(N)=O)[C@@H](OC)/C=C\C=C(/C)C(=O)N2.Cl [IPI-504, Retaspimycin hydrochloride], the bioavailability [3] is given as “excellent bioavailability” and the water solubility [4] is given as “water-soluble”.
